Data taken from patent publication US6469063B1, “Inhibition of inflammation via inhibition of COX-2 gene transcription” (City of Hope, priority 1999, dated 2002).
“And” between values parts separate entries of the source, which are not always exact repeats. Equal values may be shown once. “Also recorded” adds a separate entry of the source.

Columns and labels:
[1] = system: COX-1 mRNA; assay: Semi-quantitative RT-PCR of COX-1 gene expression in RIN m5F cells; format: cell-based, rat; conditions: same experiments as COX-2 mRNA
Method: (§1) RIN m5F cells were cultured to near confluence in RPMi-1640 medium (Life Technologies, Inc., Grand Island, N.Y.) plus 10% FCS plus 1% HEPES and penicillin/streptomycin. Prior to addition of IL-1β the cells were depleted in RPMI-1640 medium plus 0.2% BSA for 24 hours. The cells were gently washed in PBS and depletion medium was added back. At this time CDC (Biomol Research Lab, Inc., Plymouth Meeting, PA) (1-10 μM) was added in certain experiments 60 minutes prior to IL-1β addition. 12-HETE (1-100 nM) and 15-HETE (1-100 nM) (Biomol Research Lab, Inc., Plymouth Meeting, Pa.) were added to certain experiments in 0.1% ethanol. The cells were cultured for an additional 24 hours at which time medium was collected for PGE2 assay. For mRNA experiments, total RNA was extracted from RIN m5F cells 3 hours after the addition of IL-1 β, 12-HETE, or 15-HETE. 12HETE and 15-HETE were stored at −70 C. in the dark and added to cell culture dishes in the dark. Control experiments included the addition of 0.1% ethanol alone to RIN m5F cell cultures.
(§2) RIN m5F cells were cultured as set forth in Example 1, in the presence or absence of IL-1β (0.3 ng/ml), 12-S-HETE (1-100 nM), or 15-S-HETE (1-100 nM) for […]. Total RNA was extracted and semiquantitative RT-PCR was performed using COX-2 specific primers.
Total RNA was extracted from RIN m5F cells with RNA STAT-60 (Tel-Test, Inc., Friendswood, Tex.). RNA (1 μg) was diluted in 12.5 μl DEPC-H20 and reverse transcribed with the 1st-Strand™ cDNA Synthesis Kit (CLONTECH laboratories, Inc., Palo Alto, Calif.), using oligo dT primers, recombinant RNase inhibitor, and MMLV reverse transcriptase to generate template cDNA for PCR amplification. Each PCR reaction was done on RNA from one 100 mm culture dish for the stated experimental conditions. Twenty picomoles of each primer (shown below) was mixed with 1 unit of Taq gold polymerase (Perkin Elmer, Inc.) in 50 μl final volume. […]
PCR products were analyzed by electrophoresis with 1.8% agarose gel. […]

[2] = system: COX-2 protein; assay: Western immunoblot of COX-2 protein expression in RIN m5F cells; format: cell-based, rat; conditions: 12-HETE 1-10 nM, 24 hours; for increase in COX-2 protein: IL-1β 0.3 ng/ml
Method: as §1
This Example investigates the mechanism(s) of this resistance. RIN m5F cells, cultured as set forth in Example 1, were stimulated with IL-1β and 12-HETE and total protein extracts were used for Western immunoblotting with an anti-COX-2 antibody.
The RIN m5F cells (−300 per blot) were lysed in a 1% Triton-0.1% SDS buffer in normal saline (pH 7.4) with 10 mM HEPES plus 1 mM EDTA and standard protease inhibitors. Cell lysates were centrifuged at 14,000×9 for 10 minutes and a modified BCA protein assay was performed. Protein aliquots (50 μg per sample) were treated with Laemmeli sample buffer and then heated to 100° C. for 5 minutes. Proteins were separated on 10% SDS-PAGE and transferred to polyvinylidene difluoride membranes (Immobilon-P) in 10 mM CAPS buffer, 10% methanol at pH 11. The immunoblots were blocked overnight in 5% nonfat dried milk in Tris buffer containing 0.1% Tween-20. […]

[3] = system: COX-2 mRNA; assay: Semi-quantitative RT-PCR of COX-2 gene expression in RIN m5F cells; format: cell-based, rat; conditions: IL-1β 0.3 ng/ml, HETEs 1-100 nM
Method: as §1, §2
Total RNA was extracted from RIN m5F cells with RNA STAT-60 (Tel-Test, Inc., Friendswood, Tex.). RNA (1 μg) was diluted in 12.5 μl DEPC-H20 and reverse transcribed with the 1st-Strand™ cDNA Synthesis Kit (CLONTECH laboratories, Inc., Palo Alto, Calif.), using oligo dT primers, recombinant RNase inhibitor, and MMLV reverse transcriptase to generate template cDNA for PCR amplification. Each PCR reaction was done on RNA from one 100 mm culture dish for the stated experimental conditions. Twenty picomoles of each primer (shown below) was mixed with 1 unit of Taq gold polymerase (Perkin Elmer, Inc.) in 50 μl final volume. Samples were amplified with an initial 45 second denaturation step at 94° C. followed by 25 cycles of 45 seconds at 60° C., and 25 cycles of 2 minutes at 72° C.. The last cycle was extended for an additional 7 minutes at 72° C. PCR cycling was done with a Gene Amp PCR System 2400 (Perkin Elmer/Cetus Corp., Norwalk, Conn.). DNA primers were synthesized in the DNA/RNA Core Chemistry Laboratory at City of Hope National Medical Center. The sequences of the primers are shown below.
PCR products were analyzed by electrophoresis with 1.8% agarose gel. The DNA was transferred to nylon membranes and hybridized sequentially to ^32P-labeled probes for COX-1, COX-2, and GAPDH using a random Primed DNA labeling kit (Boehringer Mannheim). GAPDH was used as an internal control. Hybridization and autoradiography were performed according to previously published methods.

[4] = system: PGE2 production (COX-2 activity); assay: PGE2 production in RIN m5F cells (RIA of conditioned medium); format: cell-based, rat; conditions: for PGE2 production in conditioned medium: 24 hours after addition of agent
Method: as §1
In addition, PGE2 production was measured under the same conditions, but over a 24 hour period. COX-2 activity was determined by measuring the accumulation of PGE2 in the conditioned media. Cells were cultured in 24 well plates for 24 hours and subject to the experimental conditions described above. PGE2 was measured in conditioned medium using a commercial RIA kit. Statistical analysis of PGE2 levels was performed using the Student's t-test with GraphPad Prism™ software (GraphPad Software, Inc, San Diego, Calif.).

[5] = system: COX-2 gene transcription; conditions: higher concentrations; cited from earlier work
[6] = system: prostaglandin synthesis; conditions: 10-100 mg/kg; cited from earlier work
[7] = system: COX-2 protein; assay: Western immunoblot of COX-2 protein in cultured intact porcine pancreatic islets; format: cell-based; conditions: 24 hours
Method: The RIN m5F cells (−300 per blot) were lysed in a 1% Triton-0.1% SDS buffer in normal saline (pH 7.4) with 10 mM HEPES plus 1 mM EDTA and standard protease inhibitors. Cell lysates were centrifuged at 14,000×9 for 10 minutes and a modified BCA protein assay was performed. Protein aliquots (50 μg per sample) were treated with Laemmeli sample buffer and then heated to 100° C. for 5 minutes. Proteins were separated on 10% SDS-PAGE and transferred to polyvinylidene difluoride membranes (Immobilon-P) in 10 mM CAPS buffer, 10% methanol at pH 11. The immunoblots were blocked overnight in 5% nonfat dried milk in Tris buffer containing 0.1% Tween-20. The blots were incubated for 2 hours at room temperature with anti COX-2 antibodies (Cayman Chemical Co., Ann Arbor, Mich.) diluted 1:2000 in the same Tris buffer without nonfat dried milk. The blots were washed and then incubated with horseradish peroxidase conjugated secondary antibodies at 1:2000 dilution. The protein bands were visualized with enhanced chemiluminescence reagents using X-AR film.
Next, Western immunoblots were performed on protein extracts from porcine islets treated in a similar fashion with IL-1β and lysed as set forth about for RIN m5F cells. Because of the concern that 12-HETE would not permeate the islet mass, the 12-LO inhibitor CDC (1 μM) was used instead with or without the addition of IL-1β, in order to determine the role of the 12-LO pathway on COX-2 protein expression.

[8] = biological target: T1, 5-lipoxygenase (Homo sapiens, UniProt P09917); conditions: cited from earlier work
T1 sequence (P09917 1-674): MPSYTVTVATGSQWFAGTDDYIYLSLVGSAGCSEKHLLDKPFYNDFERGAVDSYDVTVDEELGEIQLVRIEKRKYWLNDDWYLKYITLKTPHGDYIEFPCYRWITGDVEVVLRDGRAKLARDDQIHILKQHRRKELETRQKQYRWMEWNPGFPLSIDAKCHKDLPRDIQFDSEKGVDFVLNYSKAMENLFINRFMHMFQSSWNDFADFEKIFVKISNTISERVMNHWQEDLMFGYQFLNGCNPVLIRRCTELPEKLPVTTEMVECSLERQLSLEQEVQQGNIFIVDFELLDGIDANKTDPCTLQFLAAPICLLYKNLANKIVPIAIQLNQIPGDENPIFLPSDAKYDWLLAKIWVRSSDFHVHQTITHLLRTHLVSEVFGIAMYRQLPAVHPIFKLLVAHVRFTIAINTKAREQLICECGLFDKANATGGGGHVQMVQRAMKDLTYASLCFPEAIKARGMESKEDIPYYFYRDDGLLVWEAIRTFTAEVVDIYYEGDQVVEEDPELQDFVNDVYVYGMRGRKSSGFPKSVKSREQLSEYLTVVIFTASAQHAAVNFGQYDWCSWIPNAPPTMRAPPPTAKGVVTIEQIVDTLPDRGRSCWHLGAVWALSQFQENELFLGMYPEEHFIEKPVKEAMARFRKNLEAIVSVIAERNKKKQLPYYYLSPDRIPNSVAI

[9] = biological target: 12-lipoxygenase; conditions: cited from earlier work
[10] = biological target: 15-lipoxygenase; conditions: cited from earlier work
[11] = system: HIT cells; conditions: HIT cells treated with IL-1β for 24 hours; cited from earlier work
[12] = system: leukocyte influx and prostaglandin synthesis; conditions: oral, 3 mg/kg, over a 24 hour period; cited from earlier work
[13] = system: PGE2 production; assay: PGE2 production in islets from C57BL/6 and 12-LO knockout mice; format: cell-based, mouse; conditions: for PGE2 generated by IL-1β stimulated islets: 24 hours
Method: Generation of 12-LO knockout has been previously described. All animal studies were performed in accordance with guidelines set forth by the Research Animal Care Committee of City of Hope National Medical Center. Islet isolation and culturing techniques have been detailed previously. Briefly, mouse pancreas was removed, minced, and poured into a siliconized 25 ml Ehrlenmeyer flask with Type Xl collagenase solution (Sigma Chemical Co, St. Louis, Mo.). The pancreatic digest was incubated in a shaker-type water bath at 37 C. for 6-10 minutes. The digest was centrifuged, poured into a black back petri dish, and islets were picked by hand under a microscope. The islets were aliquoted into sterile 6-well plates (Sarstedt, Newton, N.C.) and cultured in RPMI 1640 medium containing 11 mM glucose and supplemented with 10% FCS and 1% HEPES. Typically, we isolate −75-100 islets per mouse. For PGE2 experiments, 100 islets per well in 300 μl RPMI medium were cultured overnight prior to additions. The following morning the medium was changed to RPMI 1640 medium plus 0.2% BSA and the islets were allowed to equilibrate for one hour. Then, IL-1β (R & D Systems, Minneapolis, Minn.) was added to the appropriate experiments. All islet experiments were run in triplicate and repeated three times for reproducibility.
Isolated islets (100 per experiment) were brought to culture and incubated overnight as described. After approximately 18 hours IL-1β was added to the medium and the islets were incubated for an additional 24 hours. PGE2 production was measured as set forth in Example 3.

With CCCCC/C=C\C[C@@H](O)/C=C/C=C\C/C=C\CCCC(=O)O [12-HETE, 12-hydroxyeicosatetraenoic acid, reference compound] the “COX-1 mRNA expression / gene transcription” value [1] was “No appreciable difference; also recorded: neither IL-1β,nor 12-HETE stimulated”, the “COX-2 protein stimulation compared to IL-1β (0.3 ng/ml)” value [2] was “equipotent” and the “increase in COX-2 protein” value [2] was 3 fold. The “increase in COX-2 mRNA expression” value [3] was 3 fold, the “increase in PGE2 relative to 15-HETE” value ([4]; 24 hours) was 10 fold and the “PGE2 production in conditioned medium” value [4] was about 1250 pg/mL.
With CCCCC[C@H](O)/C=C/C=C\C/C=C\C/C=C\CCCC(=O)O [15-HETE, 15-hydroxyeicosatetraenoic acid, reference compound] the “increase in COX-2 mRNA expression” value [3] was 1.5 fold and the “PGE2 production in conditioned medium” value [4] was about 125 pg/mL.
For O=C(/C=C/c1ccc(O)c(O)c1)OCCc1ccccc1 [CAPE, caffeic acid phenethyl ester], the “concentration inhibiting COX-2 gene transcription” value [5] is given as 35 to 70 µM and the “prostaglandin synthesis in rat carrageenan air pouch” value [6] is given as “inhibited prostaglandin synthesis in a dose-dependent fashion”.
In the case of N#CC(=Cc1ccc(O)c(O)c1)C(=O)OCC=Cc1ccccc1 [CDC, cinnamamyl-3,4-dihydroxy-α-cyanocinnamate], the “effect on IL-1β stimulated increase in COX-2 protein” value ([7]; CDC 1 μM plus IL-1β) is listed as “completely inhibited; also recorded: completely eliminated this response”, the “effect on basal COX-2 protein levels” value ([7]; CDC alone) is listed as “did not appreciably affect” and the IC50 [8] is listed as 3.33 µM. The IC50 [9] was 63 nM, the IC50 [10] was 1890 nM and the “inhibition of IL-1β induced PGE2 production” value ([4]; CDC 1 μM (1-10 μM)) was “completely inhibited; also recorded: statistically significant decrease; also recorded: statistically significant inhibition; also recorded: dose-dependent”. For the same compound, the “IL-1β induced PGE2 production in presence of CDC” value ([4]; CDC 1 μM added 60 minutes before IL-1β, 24 hours) was 169+5 pg/ml.
In the case of CS(=O)(=O)Nc1ccc([N+](=O)[O-])cc1OC1CCCCC1 [NS-398], the glucose-stimulated insulin secretion [11] is listed as “partially restored”.
In the case of CS(=O)(=O)Nc1ccc(Oc2ccc(F)cc2)s1 [RWJ63556], the “inhibition of leukocyte influx” value [12] is given as “significant sustained inhibition” and the “inhibition of prostaglandin synthesis” value [12] is given as “significant sustained inhibition”.
For interleukin-1β [IL-1β], the “increase in COX-2 protein” value ([7]; IL-1β 0.3 ng/ml) was 3 fold, the “PGE2 production upon stimulation with IL-1β (words)” value ([13]; 12-LO knockout mouse islets) was “fail to stimulate prostaglandin E2 production” and the “PGE2 generated by IL-1β stimulated islets” value ([13]; 12-LO knockout mouse islets) was 78+15 pg/ml. The “PGE2 production upon stimulation with IL-1β (words)” value ([13]; 12-LO knockout mouse islets, listed as IL-1 β) was “no appreciable PGE2 production”, the “increase in PGE2 production with IL-1β stimulation” value ([13]; C57BL/6 mouse islets) was 8 fold and 7 fold and the “PGE2 generated by IL-1β stimulated islets” value ([13]; C57BL/6 mouse islets) was 5405+1012 pg/ml. The “COX-1 mRNA expression / gene transcription” value [1] was “neither IL-1β,nor 12-HETE stimulated”, the “COX-1 mRNA expression / gene transcription” value ([1]; listed as IL-1 β) was “No appreciable difference” and the “increase in COX-2 protein” value [2] was 2.5 fold. The “increase in COX-2 mRNA expression” value [3] was 2 fold, the “increase in COX-2 mRNA expression” value ([3]; listed as IL-1 β) was 2 fold and 1.5 fold and the “PGE2 production in conditioned medium” value [4] was ~500 pg/ml and 388+27 pg/ml.
